Laboratory results as given in US10532985B2, “Heterocycle and carbocycle derivatives having TRKA inhibitory activity” (Shionogi & Co., Ltd., priority 2014, dated 2020).
Where two headings read alike, the source gives them in different places.

Biological target: T1, human TrkA (Homo sapiens, UniProt P04629)
T1 construct: purchased Lifetechnologies PV3144
Test: Test Example 2-2: Human TrkA Inhibition Assay
Assay type: biochemical
Procedure: Seven point five μL per well of human TrkA (PV3144, Lifetechnologies, final concentration: 1 nmol/L) suspended in the assay buffer (100 mmol/L 4-(2-hydroxyethyl)-1-piperazineethanesulfonic acid (HEPES), 10 mmol/L magnesium chloride, 0.003 vol % Brij-35, 0.004 vol % Tween20 and 1 mmol/L dithiothreitol (DTT)) was applied in a 384 well plate and the plate was pre-incubated for 15 min at room temperature with 0.4 μL of each compound (final concentration: […]) dissolved in DMSO. Then, fluorescent substrate (FL-peptide 27, 760424, PerkinElmer, final concentration: 1.5 μmol/L) and ATP (final concentration […]) dissolved in the assay buffer was added in each well. After the incubation of 120 min at 37° C., fifteen μL of termination buffer (100 mmol/L HEPES, 40 mmol/L ethylenediaminetetraacetic acid (EDTA), 10 mmol/L magnesium chloride, 0.003 vol % Brij-35, 0.004 vol % Tween20, 1 mmol/L DTT and 0.16 vol % Coating Reagent 3) was added in each well to stop the enzyme reaction. Fluorescent intensities (FI) of phosphorylated and non-phosphorylated fluorescent substrates were measured by LabChip EZReader II (Caliper LifeSciences, Inc.), and conversion ratio (CR) was calculated by the following formula-1. The CR in the well applied with DMSO alone was used as a negative control and the CR in the well without applying TrkA was used as a positive control. The inhibitory effect of each compound on TrkA phosphorylation was calculated by the following formula-2. CR (%)=(FI of phosphorylated substrate/(FI of phosphorylated substrate+FI of non-phosphorylated substrate))×100 (Formula-1) Phosphorylation inhibition (%)=(1−(CR with compound treatment−CR of positive control)/(CR of negative control−CR of positive control))×100 (Formula-2) Inhibitory effect on TrkA phosphorylation (%)=(1−(CR in compound treated well−CR in positive control)/(CR in negative control−CR in positive control))×100.
The 50/o inhibitory concentration (IC50) was determined by the logistic regression using the inhibition data in 10 points at a range of 2 μmol/L to 0.1 nmol/L or 200 μmol/L to 10 nmol/L).

[1] = human TrkA inhibition, class symbols A/B/C, read-out: IC50_nM
[2] = human TrkA 1 nmol/L, 120 min at 37° C., read-out: TrkA inhibition IC50

T1 sequence (P04629 33-796): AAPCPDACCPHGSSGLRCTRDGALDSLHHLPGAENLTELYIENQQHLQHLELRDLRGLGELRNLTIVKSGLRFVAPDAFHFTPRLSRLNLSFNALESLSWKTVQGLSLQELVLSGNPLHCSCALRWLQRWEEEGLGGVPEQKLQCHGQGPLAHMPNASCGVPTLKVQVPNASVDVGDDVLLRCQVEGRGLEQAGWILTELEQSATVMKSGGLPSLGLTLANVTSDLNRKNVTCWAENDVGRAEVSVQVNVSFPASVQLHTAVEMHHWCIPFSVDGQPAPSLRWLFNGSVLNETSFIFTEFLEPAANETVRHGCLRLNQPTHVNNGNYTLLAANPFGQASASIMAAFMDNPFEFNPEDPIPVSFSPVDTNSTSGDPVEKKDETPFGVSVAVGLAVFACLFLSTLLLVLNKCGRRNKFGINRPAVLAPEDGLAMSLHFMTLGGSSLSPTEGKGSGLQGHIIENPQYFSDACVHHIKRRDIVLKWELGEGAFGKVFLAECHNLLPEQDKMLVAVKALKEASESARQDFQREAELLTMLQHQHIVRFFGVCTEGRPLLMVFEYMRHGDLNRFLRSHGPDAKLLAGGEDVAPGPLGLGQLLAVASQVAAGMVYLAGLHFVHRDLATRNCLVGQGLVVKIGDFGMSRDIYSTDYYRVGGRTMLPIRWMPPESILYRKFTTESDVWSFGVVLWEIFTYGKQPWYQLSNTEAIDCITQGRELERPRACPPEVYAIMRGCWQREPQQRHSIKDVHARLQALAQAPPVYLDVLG

COCCC1C[C@@H](NC(=O)Nc2c(C)c(-c3cnn(C)c3)nn2-c2ccccc2)[C@H](c2ccc(F)c(F)c2)N1CC(=O)OC (stereo partly shown) [Compound I-198]
IC50 [1]: > 1000 nM

COCCC1C[C@@H](NC(=O)Nc2cc(-c3ccc(C(=O)O)cc3)nn2C)[C@H](c2ccccc2)C1 (stereo partly shown) [Compound I-199]
IC50 [1]: > 1000 nM

CNC(=O)c1ccc(-c2cc(NC(=O)N[C@@H]3CC(CCOC)C[C@H]3c3ccccc3)n(C)n2)cc1 (stereo partly shown) [Compound I-200]
IC50 [1]: > 1000 nM

Cc1c(-c2cnn(C)c2)nn(-c2ccccc2)c1NC(=O)N[C@@H]1CN(Cc2ccc(Cl)o2)C[C@H]1c1ccc(F)c(F)c1 [Compound I-202]
IC50 [2]: 0.71 nM

Cc1cc(CN2C[C@@H](NC(=O)Nc3c(C)c(-c4cnn(C)c4)nn3-c3ccccc3)[C@H](c3ccc(F)c(F)c3)C2)oc1C [Compound I-203]
IC50 [1]: 100 to 1000 nM

Cc1c(-c2cnn(C)c2)nn(-c2ccccc2)c1NC(=O)N[C@@H]1CN(Cc2csc(Cl)n2)C[C@H]1c1ccc(F)c(F)c1 [Compound I-204]
IC50 [1]: < 100 nM

Cc1c(-c2cnn(C)c2)nn(-c2ccccc2)c1NC(=O)N[C@@H]1CN(Cc2csc(Br)n2)C[C@H]1c1ccc(F)c(F)c1 [Compound I-205]
IC50 [1]: < 100 nM

COCCC1C[C@@H](NC(=O)Nc2c(C)c(-c3ccc(C(=O)OC(C)(C)C)cc3)nn2-c2ccccc2)[C@H](c2ccccc2)C1 (stereo partly shown) [Compound I-206]
IC50 [1]: < 100 nM

COCCC1C[C@@H](NC(=O)Nc2c(C)c(-c3ccc(C(=O)O)cc3)nn2-c2ccccc2)[C@H](c2ccccc2)C1 (stereo partly shown) [Compound I-207]
IC50 [1]: < 100 nM

COCC[C@@H]1C[C@@H](NC(=O)Nc2c(C)c(-c3cnn(C)c3)nn2-c2ccccc2)[C@H](c2ccc(F)c(F)c2)N1 [Compound I-208]
IC50 [1]: < 100 nM

CCOc1nn(-c2ccccc2)c(NC(=O)N[C@@H]2CC(CCOC)C[C@H]2c2ccccc2)c1C (stereo partly shown) [Compound I-212]
IC50 [1]: < 100 nM

COCCC1C[C@H](NC(=O)Nc2c(C)c(-c3cnn(C)c3)nn2-c2ccccc2)[C@@H](c2ccccc2)C1 (stereo partly shown) [Compound I-213]
IC50 [1]: 100 to 1000 nM

COCC(O)[C@H]1C[C@@H](NC(=O)Nc2c(C)c(-c3cnn(C)c3)nn2-c2ccccc2)[C@H](c2ccc(F)c(F)c2)N1 (stereo partly shown) [Compound I-215]
IC50 [1]: 100 to 1000 nM

COCCC1C[C@@H](NC(=O)Nc2cc(-c3ccccc3)nn2C)[C@H](c2ccccc2)N1 (stereo partly shown) [Compound I-216]
IC50 [1]: 100 to 1000 nM

Cc1c(-c2cnn(C)c2)nn(-c2ccccc2)c1NC(=O)N[C@@H]1CN(CCOC(C)C)C[C@H]1c1ccc(F)c(F)c1 [Compound I-217]
IC50 [1]: < 100 nM

COCCC1C[C@@H](NC(=O)Nc2cc(-c3cnc(C)nc3)nn2C)[C@H](c2ccccc2)C1 (stereo partly shown) [Compound I-219]
IC50 [1]: > 1000 nM

COCCC1C[C@@H](NC(=O)Nc2cc(-c3ccc(C)nc3)nn2C)[C@H](c2ccccc2)C1 (stereo partly shown) [Compound I-220]
IC50 [1]: 100 to 1000 nM

COCCC1C[C@@H](NC(=O)Nc2c(C)c(-c3cnn(C)c3)nn2-c2ccccc2)[C@H](c2ccc(O)cc2)C1 (stereo partly shown) [Compound I-222]
IC50 [1]: < 100 nM

C=C[C@@H]1C[C@@H](NC(=O)Nc2c(C)c(-c3cnn(C)c3)nn2-c2ccccc2)[C@H](c2ccc(F)c(F)c2)N1 [Compound I-224]
IC50 [1]: 100 to 1000 nM

COCC[C@@H]1C[C@@H](NC(=O)Nc2c(C)c(-c3cnn(C)c3)nn2-c2ccccc2)[C@H](c2ccccc2)[C@H]1CO [Compound I-226]
IC50 [1]: 100 to 1000 nM

CCOc1nn(-c2ccccc2)c(NC(=O)N[C@@H]2C[C@@H](CCOC)[C@H](CO)[C@H]2c2ccccc2)c1C [Compound I-227]
IC50 [1]: 100 to 1000 nM

COCC(O)[C@H]1C[C@@H](NC(=O)Nc2c(C)c(-c3cnn(C)c3)nn2-c2ccccc2)[C@H](c2ccc(F)c(F)c2)N1C (stereo partly shown) [Compound I-229]
IC50 [1]: < 100 nM

COCC(OC)[C@H]1C[C@@H](NC(=O)Nc2c(C)c(-c3cnn(C)c3)nn2-c2ccccc2)[C@H](c2ccc(F)c(F)c2)N1C (stereo partly shown) [Compound I-231]
IC50 [1]: > 1000 nM

COCCC1C[C@@H](NC(=O)Nc2c(C)c(-c3ccnc(C)c3)nn2-c2ccccc2)[C@H](c2ccccc2)C1 (stereo partly shown) [Compound I-234]
IC50 [1]: < 100 nM

COCC[C@@H]1C[C@@H](NC(=O)Nc2c(C)c(-c3ccnc(C)c3)nn2-c2ccccc2)[C@H](c2ccc(F)c(F)c2)N1C [Compound I-235]
IC50 [1]: < 100 nM

COCC[C@@H]1C[C@@H](NC(=O)Nc2c(C)c(-c3ccc(C(=O)OC(C)(C)C)cc3)nn2-c2ccccc2)[C@H](c2ccc(F)c(F)c2)N1C [Compound I-236]
IC50 [1]: < 100 nM

COCC[C@@H]1C[C@@H](NC(=O)Nc2c(C)c(-c3ccc(C(=O)O)cc3)nn2-c2ccccc2)[C@H](c2ccc(F)c(F)c2)N1C [Compound I-237]
IC50 [1]: < 100 nM

COCC(CO)[C@@H]1C[C@@H](NC(=O)Nc2c(C)c(-c3cnn(C)c3)nn2-c2ccccc2)[C@H](c2ccccc2)C1 (stereo partly shown) [Compound I-239]
IC50 [2]: 76 nM

Cc1c(-c2cnn(C)c2)nn(-c2ccccc2)c1NC(=O)N[C@@H]1CN(Cc2ccccn2)C[C@H]1c1ccc(F)c(F)c1 [Compound I-240]
IC50 [1]: 100 to 1000 nM

COCC[C@@H]1C[C@@H](NC(=O)Nc2c(C)c(-c3cnn(C)c3)nn2-c2ccccc2)[C@H](c2ccccc2)[C@H]1C [Compound I-241]
IC50 [2]: 0.9 nM

COCC[C@@H]1C[C@@H](NC(=O)Nc2c(C)c(-c3cnn(C)c3)nn2-c2ccccc2)[C@H](c2ccccc2)N1 [Compound I-242]
IC50 [1]: 100 to 1000 nM

COCC(COS(C)(=O)=O)[C@@H]1C[C@@H](NC(=O)Nc2c(C)c(-c3cnn(C)c3)nn2-c2ccccc2)[C@H](c2ccccc2)C1 (stereo partly shown) [Compound I-245]
IC50 [1]: > 1000 nM

COCC[C@H]1C[C@@H](NC(=O)Nc2c(C)c(-c3cnn(C)c3)nn2-c2ccccc2)[C@H](c2ccccc2)N1C [Compound I-246]
IC50 [1]: < 100 nM

COCC[C@@H]1C[C@@H](NC(=O)Nc2c(C)c(C3=CCNCC3)nn2-c2ccccc2)[C@H](c2ccc(F)c(F)c2)N1 [Compound I-247]
IC50 [1]: < 100 nM

CCOCCN1C[C@@H](NC(=O)Nc2c(C)c(-c3cnn(C)c3)nn2-c2ccccc2)[C@H](c2ccc(F)c(F)c2)C1 [Compound I-249]
IC50 [1]: < 100 nM

COCCN1C[C@@H](NC(=O)Nc2c(C)c(-c3cnn(C)c3)nn2-c2ccccc2)[C@H](c2ccc(F)c(F)c2)C1 [Compound I-250]
IC50 [1]: < 100 nM

COCCN1C[C@@H](NC(=O)Nc2c(C)c(-c3cnn(C)c3)nn2-c2ccccc2)[C@H](c2ccccc2)[C@H]1CF [Compound I-251]
IC50 [1]: 100 to 1000 nM

Cc1c(-c2cnn(C)c2)nn(-c2ccccc2)c1NC(=O)N[C@@H]1CN(CCOC2CC2)C[C@H]1c1ccc(F)c(F)c1 [Compound I-252]
IC50 [2]: 3.6 nM

COCC[C@@H]1C[C@@H](NC(=O)Nc2c(C)c(-c3cnn(C)c3)nn2-c2ccccc2)[C@H](c2ccccc2)[C@H]1C(F)F [Compound I-253]
IC50 [1]: < 100 nM

COCC[C@@H]1C[C@@H](NC(=O)Nc2c(C)c(-c3cnc(C)nc3)nn2-c2ccccc2)[C@H](c2ccc(F)c(F)c2)C1 [Compound I-254]
IC50 [2]: 0.73 nM

COCC[C@@H]1C[C@@H](NC(=O)Nc2c(C)c(-c3cnc(C)nc3)nn2-c2ccccc2)[C@H](c2ccc(F)c(F)c2)N1 [Compound I-256]
IC50 [2]: 8.2 nM

COCC[C@@H]1C[C@@H](NC(=O)Nc2c(C)c(-c3ccc(OC)nc3)nn2-c2ccccc2)[C@H](c2ccc(F)c(F)c2)N1 [Compound I-257]
IC50 [1]: < 100 nM

COCC[C@@H]1C[C@@H](NC(=O)Nc2c(C)c(C3=CCNCC3)nn2-c2ccccc2)[C@H](c2ccc(F)c(F)c2)N1C [Compound I-258]
IC50 [1]: < 100 nM
